Test results reported in US20070128217A1 (priority 2003, published 2007).

Columns and labels:
[1] = test system: antibodies in sera from SARS patients (sera 1a, 1b, 2, 6, 37, 62, London, SARS-yellow, SARS-green); format: binding, human; set-up: Binding of serum 6 to linear peptides of protein X1 of SARS-CoV Urbani / Binding of serum 37 to linear peptides of protein X1 of SARS-CoV Urbani / Binding of serum 6 to looped/cyclic peptide (PEPSCAN-ELISA) / Binding of serum 37 to looped/cyclic peptide (PEPSCAN-ELISA) / Binding of serum 37 to looped/cyclic peptides of protein X1 of SARS-CoV Urbani / Binding of serum 6 to linear peptides of protein X2 / Binding of serum 37 to linear peptides of protein X2 / Binding of serum 37 to looped/cyclic peptides of protein X2 of SARS-CoV Urbani / Binding of serum 6 to linear peptides of protein M of SARS-CoV Urbani / Binding of serum 37 to linear peptides of protein M of SARS-CoV Urbani / Binding of serum 6 to looped/cyclic peptides of protein M of SARS-CoV Urbani / Binding of serum 37 to looped/cyclic peptides of protein M of SARS-CoV Urbani / Binding of serum 6 to linear peptides of protein X3 of SARS-CoV Urbani / Binding of serum 37 to linear peptides of protein X3 of SARS-CoV Urbani / Binding of serum 37 to looped/cyclic peptides of protein X3 of SARS-CoV Urbani / Binding of serum 6 to linear peptides of protein X4 of SARS-CoV Urbani / Binding of serum 37 to linear peptides of protein X4 of SARS-CoV Urbani / Binding of serum 37 to looped/cyclic peptides of protein X4 of SARS-CoV Urbani / Binding of serum 6 to linear peptides of protein X5 of SARS-CoV Urbani / Binding of serum 37 to linear peptides of protein X5 of SARS-CoV Urbani / Binding of serum 37 to looped/cyclic peptides of protein X5 of SARS-CoV Urbani / Binding of serum 6 to linear peptides of protein N of SARS-CoV Urbani / Binding of serum 37 to linear peptides of protein N of SARS-CoV Urbani / Binding of serum 6 to linear peptide (PEPSCAN-ELISA) / Binding of serum 1a to looped/cyclic peptides of protein N of SARS-CoV Urbani / Binding of serum 1b to looped/cyclic peptides of protein N of SARS-CoV Urbani / Binding of serum 2 to looped/cyclic peptides of protein N of SARS-CoV Urbani / Binding of serum 6 to looped/cyclic peptides of protein N of SARS-CoV Urbani / Binding of serum 37 to looped/cyclic peptides of protein N of SARS-CoV Urbani / Binding of serum 62 to looped/cyclic peptides of protein N of SARS-CoV Urbani / Binding of serum London to looped/cyclic peptides of protein N of SARS-CoV Urbani / Binding of serum SARS-green to looped/cyclic peptides of protein N of SARS-CoV Urbani: unit not given here
[2] = test system: rabbit serum obtained by immunizing a rabbit with the SARS-CoV strain Frankfurt 1; format: binding; set-up: Binding of a rabbit serum to linear peptides / Binding of a rabbit serum to looped peptides / Rabbit serum linear peptides / Rabbit serum looped peptides / Binding of a rabbit serum to linear peptides of protein N of SARS-CoV Urbani (Rabbit serum linear peptides) / Binding of a rabbit serum to looped/cyclic peptides of protein N of SARS-CoV Urbani (Rabbit serum looped peptides): unit not given here

Sequence	Binding of serum 1a to linear peptides of protein X1 of SARS-CoV Urbani [1]	Binding of serum 1a to looped/cyclic peptide (PEPSCAN-ELISA) [1]	Binding of serum 1b to linear peptides of protein X1 of SARS-CoV Urbani [1]	Binding of serum 1b to looped/cyclic peptide (PEPSCAN-ELISA) [1]	Binding of serum 2 to linear peptides of protein X1 of SARS-CoV Urbani [1]	Binding of serum 2 to looped/cyclic peptide (PEPSCAN-ELISA) [1]	Binding of serum 6 to linear peptides of protein X1 of SARS-CoV Urbani [1]	Binding of serum 6 to looped/cyclic peptide (PEPSCAN-ELISA) [1]	Binding of serum 37 to linear peptides of protein X1 of SARS-CoV Urbani [1]	Binding of serum 37 to looped/cyclic peptide (PEPSCAN-ELISA) [1]	Binding of serum 62 to linear peptides of protein X1 of SARS-CoV Urbani [1]	Binding of serum 62 to looped/cyclic peptide (PEPSCAN-ELISA) [1]	Binding of serum London to linear peptides of protein X1 of SARS-CoV Urbani [1]	Binding of serum London to looped/cyclic peptide (PEPSCAN-ELISA) [1]	Binding of serum SARS-green to linear peptides of protein X1 of SARS-CoV Urbani [1]	Binding of serum SARS-green to looped/cyclic peptide (PEPSCAN-ELISA) [1]	Binding of serum SARS-yellow to linear peptides of protein X1 of SARS-CoV Urbani [1]	Binding of serum SARS-yellow to looped/cyclic peptide (PEPSCAN-ELISA) [1]	Recognition of the peptide by the rabbit serum [2]	other results
IGVAFLAVFQSATKI	0.6	0.5	0.5	0.4	0.6	0.4	0.5	0.3	0.6	0.5	0.6	0.6	0.2	0.2	0.2	0.2	0.3	0.3	–	Binding of a rabbit serum to linear peptides [2]: 0.1; Binding of a rabbit serum to looped peptides [2]: 0.6
IIALNKRWQLALYKG	0.7	0.6	0.4	0.4	0.5	0.5	0.7	0.6	0.6	0.6	0.5	0.6	0.3	0.4	0.3	0.2	0.5	0.5	recognized	–
LACFVLAAVYRINWV	–	–	–	–	–	–	–	–	–	–	–	–	–	–	–	–	–	–	–	Binding of serum 1a to linear peptides of protein M of SARS-CoV Urbani [1]: 0.7; Binding of serum 1a to looped/cyclic peptides of protein M of SARS-CoV Urbani [1]: 0.7; Binding of serum 1b to linear peptides of protein M of SARS-CoV Urbani [1]: 0.7; Binding of serum 1b to looped/cyclic peptides of protein M of SARS-CoV Urbani [1]: 0.5; Binding of serum 2 to linear peptides of protein M of SARS-CoV Urbani [1]: 0.6; Binding of serum 2 to looped/cyclic peptides of protein M of SARS-CoV Urbani [1]: 0.9; Binding of serum 6 to linear peptides of protein M of SARS-CoV Urbani [1]: 0.4; Binding of serum 6 to looped/cyclic peptides of protein M of SARS-CoV Urbani [1]: 0.7; Binding of serum 37 to linear peptides of protein M of SARS-CoV Urbani [1]: 0.5; Binding of serum 37 to looped/cyclic peptides of protein M of SARS-CoV Urbani [1]: 0.6; Binding of serum 62 to linear peptides of protein M of SARS-CoV Urbani [1]: 0.5; Binding of serum 62 to looped/cyclic peptides of protein M of SARS-CoV Urbani [1]: 0.7; Binding of serum London to linear peptides of protein M of SARS-CoV Urbani [1]: 0.4; Binding of serum London to looped/cyclic peptides of protein M of SARS-CoV Urbani [1]: 0.3; Binding of serum SARS-green to linear peptides of protein M of SARS-CoV Urbani [1]: 0.6; Binding of serum SARS-green to looped/cyclic peptides of protein M of SARS-CoV Urbani [1]: 0.3; Binding of serum SARS-yellow to linear peptides of protein M of SARS-CoV Urbani [1]: 0.3; Binding of serum SARS-yellow to looped/cyclic peptides of protein M of SARS-CoV Urbani [1]: 0.4; Rabbit serum linear peptides [2]: 0.3; Rabbit serum looped peptides [2]: 0.2
LLIQQWIQFMMSRRR	–	–	–	–	–	–	–	–	–	–	–	–	–	–	–	–	–	–	–	Binding of serum 1a to linear peptides of protein X2 [1]: 0.7; Binding of serum 1a to looped/cyclic peptides of protein X2 of SARS-CoV Urbani [1]: 0.5; Binding of serum 1b to linear peptides of protein X2 [1]: 0.5; Binding of serum 1b to looped/cyclic peptides of protein X2 of SARS-CoV Urbani [1]: 0.5; Binding of serum 2 to linear peptides of protein X2 [1]: 0.5; Binding of serum 2 to looped/cyclic peptides of protein X2 of SARS-CoV Urbani [1]: 0.7; Binding of serum 6 to linear peptides of protein X2 [1]: 0.5; Binding of serum 6 to looped/cyclic peptides of protein X2 of SARS-CoV Urbani [1]: 0.3; Binding of serum 37 to linear peptides of protein X2 [1]: 0.6; Binding of serum 37 to looped/cyclic peptides of protein X2 of SARS-CoV Urbani [1]: 0.5; Binding of serum 62 to linear peptides of protein X2 [1]: 0.6; Binding of serum 62 to looped/cyclic peptides of protein X2 of SARS-CoV Urbani [1]: 0.7; Binding of serum London to linear peptides of protein X2 [1]: 0.4; Binding of serum London to looped/cyclic peptides of protein X2 of SARS-CoV Urbani [1]: 0.2; Binding of serum SARS-green to linear peptides of protein X2 [1]: 0.5; Binding of serum SARS-green to looped/cyclic peptides of protein X2 of SARS-CoV Urbani [1]: 0.3; Binding of serum SARS-yellow to linear peptides of protein X2 [1]: 0.8; Binding of serum SARS-yellow to looped/cyclic peptides of protein X2 of SARS-CoV Urbani [1]: 0.4; Binding of a rabbit serum to linear peptides [2]: 0.5; Binding of a rabbit serum to looped peptides [2]: 0.6
QSATKIIALNKRWQL	0.8	0.4	0.7	0.4	0.7	0.5	0.7	0.6	0.7	0.6	0.8	0.6	0.4	0.4	0.4	0.4	0.5	0.4	recognized	–
RTLSYYKLGASQRVG	–	–	–	–	–	–	–	–	–	–	–	–	–	–	–	–	–	–	–	Binding of serum 1a to linear peptides of protein M of SARS-CoV Urbani [1]: 0.7; Binding of serum 1a to looped/cyclic peptides of protein M of SARS-CoV Urbani [1]: 0.8; Binding of serum 1b to linear peptides of protein M of SARS-CoV Urbani [1]: 0.6; Binding of serum 1b to looped/cyclic peptides of protein M of SARS-CoV Urbani [1]: 0.5; Binding of serum 2 to linear peptides of protein M of SARS-CoV Urbani [1]: 0.7; Binding of serum 2 to looped/cyclic peptides of protein M of SARS-CoV Urbani [1]: 0.7; Binding of serum 6 to linear peptides of protein M of SARS-CoV Urbani [1]: 0.8; Binding of serum 6 to looped/cyclic peptides of protein M of SARS-CoV Urbani [1]: 1.5; Binding of serum 37 to linear peptides of protein M of SARS-CoV Urbani [1]: 0.5; Binding of serum 62 to linear peptides of protein M of SARS-CoV Urbani [1]: 0.5; Binding of serum London to linear peptides of protein M of SARS-CoV Urbani [1]: 0.3; Binding of serum London to looped/cyclic peptides of protein M of SARS-CoV Urbani [1]: 1.0; Binding of serum SARS-green to linear peptides of protein M of SARS-CoV Urbani [1]: 0.5; Binding of serum SARS-green to looped/cyclic peptides of protein M of SARS-CoV Urbani [1]: 0.4; Binding of serum SARS-yellow to linear peptides of protein M of SARS-CoV Urbani [1]: 0.4; Binding of serum SARS-yellow to looped/cyclic peptides of protein M of SARS-CoV Urbani [1]: 0.8; Rabbit serum linear peptides [2]: 0.5; Rabbit serum looped peptides [2]: 1.0
SATKIIALNKRWQLA	0.8	1.2	0.6	0.8	0.6	1.2	0.7	0.9	0.7	1.0	0.8	1.5	0.4	0.5	0.3	1.0	0.5	0.9	recognized	–
